Literature values in patent US11612595B2, “Compositions and methods for treating rheumatoid arthritis” (Generos Biopharma Ltd., priority 2017, dated 2023).
pIC50: −log10 of the molar value.

Legend:
SH2 domain of STAT3 = SH2 domain of STAT3 (Homo sapiens, UniProt P40763); settings: read-out: IC50 towards the SH2 domain of STAT3; cited from earlier work
STAT5 [1] = biological target: T1, STAT5 (Homo sapiens, UniProt P42229+P51692); design: endogenous in cells; settings: Daudi cells; cited from earlier work
T1 sequence (P42229 1-794): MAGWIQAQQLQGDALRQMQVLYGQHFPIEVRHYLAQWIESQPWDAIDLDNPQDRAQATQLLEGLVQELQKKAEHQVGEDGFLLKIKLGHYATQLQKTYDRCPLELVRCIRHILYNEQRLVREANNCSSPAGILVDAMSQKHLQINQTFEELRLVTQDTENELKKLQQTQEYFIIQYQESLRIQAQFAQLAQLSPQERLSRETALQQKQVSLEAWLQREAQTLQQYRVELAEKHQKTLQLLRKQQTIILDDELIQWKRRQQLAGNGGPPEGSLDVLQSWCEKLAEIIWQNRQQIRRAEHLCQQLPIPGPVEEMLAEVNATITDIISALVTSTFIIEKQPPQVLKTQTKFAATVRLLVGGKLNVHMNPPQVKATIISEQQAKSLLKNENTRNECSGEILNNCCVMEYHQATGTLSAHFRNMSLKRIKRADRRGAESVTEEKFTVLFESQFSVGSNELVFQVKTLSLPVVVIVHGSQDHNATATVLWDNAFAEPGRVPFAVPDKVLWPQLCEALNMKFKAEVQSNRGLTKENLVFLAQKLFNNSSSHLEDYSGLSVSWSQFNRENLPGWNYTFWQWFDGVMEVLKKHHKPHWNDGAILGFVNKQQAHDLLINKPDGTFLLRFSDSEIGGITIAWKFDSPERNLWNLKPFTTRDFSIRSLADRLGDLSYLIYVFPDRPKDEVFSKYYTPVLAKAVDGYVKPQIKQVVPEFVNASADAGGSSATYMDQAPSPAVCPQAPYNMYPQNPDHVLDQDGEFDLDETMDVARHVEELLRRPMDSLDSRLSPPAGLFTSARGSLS
T1 sequence (P51692 1-787): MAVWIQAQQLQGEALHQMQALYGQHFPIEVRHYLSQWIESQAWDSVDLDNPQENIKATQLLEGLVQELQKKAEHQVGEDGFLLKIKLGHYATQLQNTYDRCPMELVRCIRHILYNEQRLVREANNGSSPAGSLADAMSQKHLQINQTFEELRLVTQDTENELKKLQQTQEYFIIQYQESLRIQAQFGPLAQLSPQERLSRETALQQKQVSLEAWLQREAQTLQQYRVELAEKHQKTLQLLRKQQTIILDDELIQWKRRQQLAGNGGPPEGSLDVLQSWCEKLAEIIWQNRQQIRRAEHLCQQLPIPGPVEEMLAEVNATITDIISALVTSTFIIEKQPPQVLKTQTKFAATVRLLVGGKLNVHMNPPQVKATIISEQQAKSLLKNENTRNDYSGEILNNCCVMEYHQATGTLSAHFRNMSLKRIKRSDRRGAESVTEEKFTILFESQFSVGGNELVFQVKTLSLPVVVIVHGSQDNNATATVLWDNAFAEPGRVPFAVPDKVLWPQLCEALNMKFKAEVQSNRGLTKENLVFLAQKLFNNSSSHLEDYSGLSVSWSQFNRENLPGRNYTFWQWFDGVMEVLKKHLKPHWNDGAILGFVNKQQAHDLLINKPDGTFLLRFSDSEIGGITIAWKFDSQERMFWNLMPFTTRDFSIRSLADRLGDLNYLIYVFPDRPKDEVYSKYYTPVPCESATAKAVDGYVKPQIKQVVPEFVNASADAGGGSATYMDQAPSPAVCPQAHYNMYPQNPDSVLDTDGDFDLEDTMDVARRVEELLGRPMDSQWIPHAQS

STAT3 [2] = biological target: T2, STAT3 (Homo sapiens, UniProt P40763); settings: Daudi cells; cited from earlier work
SH2 domain of Lck = SH2 domain of Lck (Homo sapiens, UniProt P06239); settings: read-out: IC50 towards the SH2 domain of Lck; cited from earlier work
STAT1 = biological target: T3, STAT1 (Homo sapiens, UniProt P42224); settings: K562 cells, 10 μM 1 h pretreatment; cited from earlier work
T3 sequence (P42224 1-750): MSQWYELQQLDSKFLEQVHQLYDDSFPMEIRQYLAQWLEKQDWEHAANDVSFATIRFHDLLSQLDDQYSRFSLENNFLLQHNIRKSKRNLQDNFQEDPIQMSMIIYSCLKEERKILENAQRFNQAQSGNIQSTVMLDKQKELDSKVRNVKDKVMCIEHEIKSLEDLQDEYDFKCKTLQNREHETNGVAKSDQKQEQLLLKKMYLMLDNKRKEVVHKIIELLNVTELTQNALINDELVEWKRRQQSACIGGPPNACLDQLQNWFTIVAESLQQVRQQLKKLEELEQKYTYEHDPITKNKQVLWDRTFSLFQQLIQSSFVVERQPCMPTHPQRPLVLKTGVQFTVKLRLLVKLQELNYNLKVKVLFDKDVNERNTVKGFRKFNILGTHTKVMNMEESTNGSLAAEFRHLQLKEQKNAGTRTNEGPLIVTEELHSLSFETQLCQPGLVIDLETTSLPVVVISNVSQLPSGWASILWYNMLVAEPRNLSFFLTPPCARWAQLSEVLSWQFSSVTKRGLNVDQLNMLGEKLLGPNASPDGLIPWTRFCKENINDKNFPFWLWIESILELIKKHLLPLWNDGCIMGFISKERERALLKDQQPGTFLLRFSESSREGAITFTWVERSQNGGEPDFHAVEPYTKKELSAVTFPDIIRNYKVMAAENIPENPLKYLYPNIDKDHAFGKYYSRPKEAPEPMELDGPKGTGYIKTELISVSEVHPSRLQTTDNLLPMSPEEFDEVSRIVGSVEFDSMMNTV

STAT3 [3] = biological target: T2, STAT3; design: IFNα-stimulated STAT1 phosphorylation or LIF-stimulated STAT3 phosphorylation in K562 cells; endogenous in cells; host or cells: K562 cells; settings: K562 cells, 10 μM 1 h pretreatment; cited from earlier work
STAT5 [4] = biological target: T1, STAT5; design: in Bcr-Abl+ K562 and KU812 cultures; endogenous in cells; host or cells: K562 and KU812 cells; settings: cited from earlier work

T2 sequence (P40763 whole entry, the tested form may be a part): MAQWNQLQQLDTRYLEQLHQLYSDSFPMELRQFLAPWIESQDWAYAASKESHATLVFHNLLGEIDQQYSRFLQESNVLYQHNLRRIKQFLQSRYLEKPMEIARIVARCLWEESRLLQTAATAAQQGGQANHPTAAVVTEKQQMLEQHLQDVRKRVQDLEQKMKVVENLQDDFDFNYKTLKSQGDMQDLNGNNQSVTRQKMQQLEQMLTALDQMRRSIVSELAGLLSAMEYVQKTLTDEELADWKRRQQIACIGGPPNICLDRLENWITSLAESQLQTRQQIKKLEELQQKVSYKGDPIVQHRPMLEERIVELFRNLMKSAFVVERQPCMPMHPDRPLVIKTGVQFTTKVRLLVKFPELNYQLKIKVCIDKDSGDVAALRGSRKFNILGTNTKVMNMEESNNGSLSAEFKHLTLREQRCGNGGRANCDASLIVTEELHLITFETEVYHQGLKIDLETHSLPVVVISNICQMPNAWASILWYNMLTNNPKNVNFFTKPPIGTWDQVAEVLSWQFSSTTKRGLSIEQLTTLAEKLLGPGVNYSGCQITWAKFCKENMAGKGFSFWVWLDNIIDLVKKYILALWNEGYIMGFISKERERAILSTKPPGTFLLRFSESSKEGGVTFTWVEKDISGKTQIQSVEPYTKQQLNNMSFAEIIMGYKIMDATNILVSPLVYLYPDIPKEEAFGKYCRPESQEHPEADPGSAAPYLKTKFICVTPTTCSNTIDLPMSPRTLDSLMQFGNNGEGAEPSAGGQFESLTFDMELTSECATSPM
Sequence of SH2 domain of STAT3 (P40763 whole entry, the tested form may be a part): as above
Sequence of SH2 domain of Lck (P06239 120-226 limits assumed): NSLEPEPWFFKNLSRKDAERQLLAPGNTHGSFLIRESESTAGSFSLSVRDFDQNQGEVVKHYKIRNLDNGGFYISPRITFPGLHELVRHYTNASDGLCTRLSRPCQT

O=C(N/N=C/c1coc2ccccc2c1=O)c1cccnc1 [nicotinohydrazide, N′-((4-Oxo-4H-chromen-3-yl)methylene)nicotinohydrazide]
pIC50 (SH2 domain of STAT3): < 3.30 | IFN-α-stimulated STAT5 tyrosine phosphorylation (STAT5 [1]): inhibit | IFN-α-stimulated STAT3 tyrosine phosphorylation (STAT3 [2]): not | pIC50 (SH2 domain of Lck): < 3.30

O=c1[nH]c2ccccc2n1C1CCN(CCCC(c2ccc(F)cc2)c2ccc(F)cc2)CC1 [pimozide, 1-[1-[4,4-bis(4-fluorophenyl)butyl]-4-piperidinyl]-1,3-dihydro-2H-benzimidazole-2-one]
IFNα-stimulated STAT1 phosphorylation (STAT1): little activity | LIF-stimulated STAT3 phosphorylation (STAT3 [3]): little activity | STAT5 transcription activity (STAT5 [4]; 5 μM for 18 h, Bcr-Abl+ K562 and KU812 cultures): inhibits | expression of STAT5 target genes (STAT5 [4]; CML cell lines): decreased
